Experimental data published in ChEMBL document CHEMBL1140893, “Cancer preventive agents. Part 8: Chemopreventive effects of stevioside and related compounds” (Bioorg Med Chem, 2009).

Experiments:
Raji [1] = assay: Inhibition of TPA-induced EBV-early antigen activation in human Raji cells at 500 mol ratio after 48hrs by indirect immunofluorescence technique relative to control; format: cell-based; set-up: scale not given: the % may be the effect or the level left; details: human gammaherpesvirus 4
[2] = Cytotoxicity against human Raji cells assessed as cell viability at 1000 mol ratio by trypan blue staining; format: cell-based; details: read-out: Activity
[3] = Inhibition of TPA-induced EBV-early antigen activation in human Raji cells after 48hrs by indirect immunofluorescence technique; format: cell-based, human gammaherpesvirus 4
Mus musculus [4] = organism: Mus musculus; assay: Reduction in peroxynitrite-induced/TPA-promoted number of skin papillomas in Sencar mouse after 20 weeks; format: functional; set-up: scale not given: the % may be the effect or the level left
[5] = Cytotoxicity against human Raji cells assessed as cell viability at 500 mol ratio by trypan blue staining; format: cell-based; details: read-out: Activity
Raji [6] = assay: Inhibition of TPA-induced EBV-early antigen activation in human Raji cells at 1000 mol ratio after 48hrs by indirect immunofluorescence technique relative to control; format: cell-based; set-up: scale not given: the % may be the effect or the level left; details: human gammaherpesvirus 4
[7] = Cytotoxicity against human Raji cells assessed as cell viability at 10 mol ratio by trypan blue staining; format: cell-based; details: read-out: Activity
Raji [8] = assay: Inhibition of TPA-induced EBV-early antigen activation in human Raji cells at 100 mol ratio after 48hrs by indirect immunofluorescence technique relative to control; format: cell-based; set-up: scale not given: the % may be the effect or the level left; details: human gammaherpesvirus 4
Raji [9] = assay: Inhibition of TPA-induced EBV-early antigen activation in human Raji cells at 10 mol ratio after 48hrs by indirect immunofluorescence technique relative to control; format: cell-based; set-up: scale not given: the % may be the effect or the level left; details: human gammaherpesvirus 4
[10] = Cytotoxicity against human Raji cells assessed as cell viability at 100 mol ratio by trypan blue staining; format: cell-based; details: read-out: Activity
Mus musculus [11] = assay: Inhibition of DMBA-induced/TPA-promoted carcinogenesis in mouse assessed as number of skin papillomas per mouse at 85 nmol administered 1 hr before TPA treatment measured after 15 weeks; format: functional
Mus musculus [12] = assay: Inhibition of DMBA-induced/TPA-promoted carcinogenesis in mouse assessed as reduction in skin papillomas bearing mouse at 85 nmol administered 1 hr before TPA treatment measured after 10 weeks; format: functional; set-up: scale not given: the % may be the effect or the level left
Mus musculus [13] = assay: Inhibition of DMBA-induced/TPA-promoted carcinogenesis in mouse assessed as number of skin papillomas per mouse at 85 nmol administered 1 hr before TPA treatment measured after 10 weeks; format: functional
Mus musculus [14] = assay: Inhibition of DMBA-induced/TPA-promoted carcinogenesis in mouse assessed as reduction in skin papillomas bearing mouse at 85 nmol administered 1 hr before TPA treatment measured after 15 weeks; format: functional; set-up: scale not given: the % may be the effect or the level left
Mus musculus [15] = assay: Inhibition of DMBA-induced/TPA-promoted carcinogenesis in mouse assessed as number of skin papillomas per mouse at 85 nmol administered 1 hr before TPA treatment measured after 20 weeks; format: functional
Mus musculus [16] = assay: Inhibition of DMBA-induced/TPA-promoted carcinogenesis in mouse assessed as reduction in skin papillomas bearing mouse at 85 nmol administered 1 hr before TPA treatment measured after 20 weeks; format: functional, organism-based; set-up: Activity: scale not given: the % may be the effect or the level left
Mus musculus [17] = assay: Inhibition of peroxynitrite-induced/TPA-promoted carcinogenesis in Sencar mouse assessed as reduction in skin papillomas bearing mouse at 85 nmol administered 1 hr before TPA treatment measured after 15 weeks; format: functional; set-up: scale not given: the % may be the effect or the level left
Mus musculus [18] = assay: Inhibition of peroxynitrite-induced/TPA-promoted carcinogenesis in Sencar mouse assessed as number of skin papillomas per mouse at 85 nmol administered 1 hr before TPA treatment measured after 20 weeks; format: functional
Mus musculus [19] = assay: Inhibition of peroxynitrite-induced/TPA-promoted carcinogenesis in Sencar mouse assessed as number of skin papillomas per mouse at 85 nmol administered 1 hr before TPA treatment measured after 15 weeks; format: functional
Mus musculus [20] = assay: Inhibition of peroxynitrite-induced/TPA-promoted carcinogenesis in Sencar mouse assessed as reduction in skin papillomas bearing mouse at 85 nmol administered 1 hr before TPA treatment measured after 20 weeks; format: functional; set-up: scale not given: the % may be the effect or the level left
Mus musculus [21] = assay: Inhibition of peroxynitrite-induced/TPA-promoted carcinogenesis in Sencar mouse assessed as reduction in skin papillomas bearing mouse at 85 nmol administered 1 hr before TPA treatment measured after 11 weeks; format: functional; set-up: scale not given: the % may be the effect or the level left
Mus musculus [22] = assay: Inhibition of peroxynitrite-induced/TPA-promoted carcinogenesis in Sencar mouse assessed as number of skin papillomas per mouse at 85 nmol administered 1 hr before TPA treatment measured after 10 weeks; format: functional
Mus musculus [23] = assay: Inhibition of peroxynitrite-induced/TPA-promoted carcinogenesis in Sencar mouse assessed as reduction in skin papillomas bearing mouse at 85 nmol administered 1 hr before TPA treatment measured after 10 weeks; format: functional; set-up: scale not given: the % may be the effect or the level left
Mus musculus [24] = assay: Inhibition of DMBA-induced/TPA-promoted carcinogenesis in mouse assessed as reduction in skin papillomas bearing mouse at 85 nmol administered 1 hr before TPA treatment measured after 9 weeks; format: functional; set-up: scale not given: the % may be the effect or the level left
Mus musculus [25] = assay: Inhibition of peroxynitrite-induced/TPA-promoted carcinogenesis in Sencar mouse assessed as number of skin papillomas per mouse at 85 nmol administered 1 hr before TPA treatment measured after 11 weeks; format: functional

SMILES | IC50 [3] [mol ratio/32 pmol TPA] | Activity (Raji [1]) [%] | viability at 1000 mol ratio [2] [%] | Activity (Mus musculus [4]) [%] | viability at 500 mol ratio [5] [%] | Activity (Raji [6]) [%] | viability at 10 mol ratio [7] [%] | Activity (Raji [8]) [%] | Activity (Raji [9]) [%] | viability at 100 mol ratio [10] [%] | Activity (Mus musculus [11]) | Activity (Mus musculus [12]) [%] | Activity (Mus musculus [13]) | Activity (Mus musculus [14]) [%] | Activity (Mus musculus [15]) | Activity (Mus musculus [16]) [%] | Activity (Mus musculus [17]) [%] | Activity (Mus musculus [18]) | Activity (Mus musculus [19]) | Activity (Mus musculus [20]) [%] | other results
COc1cc(/C=C/C(=O)CC(=O)/C=C/c2ccc(O)c(OC)c2)ccc1O [CURCUMIN] | 331 | 22.8 | 60 | 45.1 | > 80 | 0 | > 80 | 81.7 | 100 | > 80 | – | – | – | – | – | – | – | – | – | – | –
C=C1C[C@@]23CC[C@H]4[C@@](C)(CCC[C@@]4(C)C(=O)O[C@@H]4O[C@H](CO)[C@@H](O)[C@H](O)[C@H]4O)[C@@H]2CC[C@]1(O[C@@H]1O[C@H](C)[C@@H](O)[C@H](O)[C@@H]1O[C@@H]1O[C@H](CO)[C@@H](O)[C@H](O)[C@H]1O)C3 [DULCOSIDE A] | – | 40.9 | – | – | – | 6.7 | – | 73 | 92.5 | – | – | – | – | – | – | – | – | – | – | – | –
C=C1C[C@@]23CC[C@H]4[C@@](C)(CCC[C@@]4(C)C(=O)O[C@@H]4O[C@H](CO)[C@@H](O)[C@H](O)[C@H]4O)[C@@H]2CC[C@]1(O[C@@H]1O[C@H](CO)[C@@H](O)[C@H](O[C@@H]2O[C@H](CO)[C@@H](O)[C@H](O)[C@H]2O)[C@H]1O[C@@H]1O[C@H](CO)[C@@H](O)[C@H](O)[C@H]1O)C3 [REBAUDIOSIDE A] | – | – | 60 | – | > 80 | – | > 80 | – | – | > 80 | – | – | – | – | – | – | – | – | – | – | –
C=C1C[C@@]23CC[C@H]4[C@@](C)(CCC[C@@]4(C)C(=O)O[C@@H]4O[C@H](CO)[C@@H](O)[C@H](O)[C@H]4O)[C@@H]2CC[C@]1(O[C@@H]1O[C@H](CO)[C@@H](O)[C@H](O[C@@H]2O[C@H](CO)[C@@H](O)[C@H](O)[C@H]2O)[C@H]1O[C@@H]1O[C@@H](C)[C@H](O)[C@@H](O)[C@H]1O)C3 [REBAUDIOSIDE C] | – | – | 60 | – | > 80 | – | > 80 | – | – | > 80 | – | – | – | – | – | – | – | – | – | – | –

The next lines start with results.

IC50 [3] [mol ratio/32 pmol TPA] | SMILES | Activity (Raji [1]) [%] | viability at 1000 mol ratio [2] [%] | Activity (Mus musculus [4]) [%] | viability at 500 mol ratio [5] [%] | Activity (Raji [6]) [%] | viability at 10 mol ratio [7] [%] | Activity (Raji [8]) [%] | Activity (Raji [9]) [%] | viability at 100 mol ratio [10] [%] | Activity (Mus musculus [11]) | Activity (Mus musculus [12]) [%] | Activity (Mus musculus [13]) | Activity (Mus musculus [14]) [%] | Activity (Mus musculus [15]) | Activity (Mus musculus [16]) [%] | Activity (Mus musculus [17]) [%] | Activity (Mus musculus [18]) | Activity (Mus musculus [19]) | Activity (Mus musculus [20]) [%] | other results
381 | CC1(C)[C@@H](O[C@H]2O[C@H](C(=O)O)[C@@H](O)[C@H](O)[C@H]2O[C@@H]2O[C@H](C(=O)O)[C@@H](O)[C@H](O)[C@H]2O)CC[C@]2(C)[C@H]3C(=O)C=C4[C@@H]5C[C@@](C)(C(=O)O)CC[C@]5(C)CC[C@@]4(C)[C@]3(C)CC[C@@H]12 [GLYCYRRHIZIN] | 36.9 | 60 | – | > 80 | 12.5 | > 80 | 69.2 | 100 | > 80 | 4.6 | 50 | 2.8 | 60 | 6.2 | 94 | – | – | – | – | –
321 | C[C@@]12CC[C@@H]3[C@@](CC[C@H]4[C@@]3(C)CCC[C@@]4(C)C(=O)O)(CC1=O)C2 [ISOSTEVIOL] | 34.2 | – | 46.2 | > 80 | 1.9 | > 80 | 73 | 90.6 | > 80 | 3.6 | 20 | 1.8 | 60 | 5 | – | 53 | 4.3 | 2.7 | 73 | Activity (Mus musculus [21]): 33%; Activity (Mus musculus [22]): 1.6; Activity % (Mus musculus [16]): 87%
450 | C=C1C[C@@]23CC[C@H]4[C@@](C)(CCC[C@@]4(C)C(=O)O[C@@H]4O[C@H](CO)[C@@H](O)[C@H](O)[C@H]4O)[C@@H]2CC[C@]1(O[C@@H]1O[C@H](CO)[C@@H](O)[C@H](O)[C@H]1O)C3 [RUBUSOSIDE] | 44.2 | 60 | – | > 80 | 12.5 | > 80 | 76.8 | 94.2 | > 80 | – | – | – | – | – | – | – | – | – | – | –
340 | C=C1C[C@@]23CC[C@H]4[C@@](C)(CCC[C@@]4(C)C(=O)O)[C@@H]2CC[C@]1(O)C3 [STEVIOL] | 35.6 | 60 | 44.4 | > 80 | 2.1 | > 80 | 74.1 | 91.2 | > 80 | 3.7 | 27 | 1.8 | 60 | 5.4 | 87 | 67 | 4.5 | 3.5 | 93 | Activity (Mus musculus [23]): 27%; Activity (Mus musculus [22]): 2.3
360 | C=C1C[C@@]23CC[C@H]4[C@@](C)(CCC[C@@]4(C)C(=O)O[C@@H]4O[C@H](CO)[C@@H](O)[C@H](O)[C@H]4O)[C@@H]2CC[C@]1(O[C@@H]1O[C@H](CO)[C@@H](O)[C@H](O)[C@H]1O[C@@H]1O[C@H](CO)[C@@H](O)[C@H](O)[C@H]1O)C3 [STEVIOSIDE] | 36.9 | – | 45 | > 80 | 3.2 | > 80 | 67.4 | 89.3 | > 80 | – | – | – | 53 | – | 93 | 53 | 4.4 | 3 | 87 | Activity (Mus musculus [24]): 20%; Activity (Mus musculus [21]): 40%; Activity (Mus musculus [25]): 2
